What was measured:
DOT1L = biological target: T1, DOT1L (Homo sapiens, UniProt Q8TEK3); experiment: DOT1L enzyme activity assay (cell-free); assay type: biochemical; details: 500 nM, 2 h, DOT1L 500 ng/well
T1 construct: purchased BPS Bioscience 52202
Procedure: DOT1L enzyme activity was measured using 5 μM S-adenosyl methionine (SAM) as the methyl group donor, synthesized DOT1L substrate as the substrate, and 25 ng/μL DOT1L enzymes from BPS Bioscience (Cat. No. 52202; San Diego, CA, USA) according to the manufacturer’s instructions.

MDA-MB-231 TNBC cells = experiment: SRB cell proliferation assay, MDA-MB-231; assay type: cell-based, human; details: for IC50: 72 h, SRB assay; for Therapeutic Index: ratio of IC50 values between MCF10A and MDA-MB-231 cells
Procedure: (§1) Human breast epithelial cell line (MCF10A) and human TNBC cell lines (MDA-MB-468, MDA-MB-231, Hs578T, and HCC38 cells) were provided by the American Type Culture Collection (Manassas, VA, USA). MCF10A cells were cultured in Dulbecco’s Modified Eagle’s Medium/Nutrient Mixture F-12 containing 5% donor horse serum, 100 ng/mL cholera toxin, 10 µg/mL human insulin, 20 ng/mL epidermal growth factor, 0.5 µg/mL hydrocortisone, and penicillin-streptomycin (sodium penicillin G: 100 units/mL; streptomycin: 100 μg/mL). The TNBC cells were cultured in medium [Dulbecco’s Modified Eagle’s Medium for MDA-MB-468, MDA-MB-231, and Hs578T cells; Roswell Park Memorial Institute 1640 medium for HCC38 cells] supplemented with penicillin-streptomycin and 10% fetal bovine serum at 37 °C in a humidified incubator with 5% carbon dioxide. MCF10A cells were cultured in DMEM/F12 containing 5% donor horse serum, 100 ng/mL cholera toxin, 10 µg/mL human insulin, 20 ng/mL epidermal growth factor, 0.5 µg/mL hydrocortisone and penicillin-streptomycin. All reagents used for cell culture, including culture medium, fetal bovine serum, trypsin-EDTA solution (1×), and penicillin-streptomycin solution (100×), were purchased from Gibco (Grand Island, NE, USA). Laemmli sample buffer (2×) and 2-mercaptoethanol were purchased from Bio-Rad Laboratories, Inc. (Hercules, CA, USA). EPZ-5676 was purchased from Cayman Chemical (Ann Arbor, MI, USA). Dimethyl sulfoxide (DMSO), bicinchoninic acid, copper (II) sulfate solution, bovine serum albumin (BSA), trichloroacetic acid, sulforhodamine B (SRB), and paclitaxel were purchased from Sigma–Aldrich (St. Louis, MO, USA).
(§2) Cell proliferation was evaluated using the SRB assay. Briefly, cells were seeded in 96-well plates and incubated for 30 min (for 0-day controls) or treated with test compounds for the times indicated. After incubation, the cells were fixed, dried, and stained with 0.4% (w/v) SRB in 1% (v/v) acetic acid solution. Unbound dye was removed by washing, and stained cells were dissolved in 10 mM Tris (pH 10.0). Cell proliferation was then determined by measuring the absorbance at 515 nm.

[1] = system: MCF10A normal breast epithelial cells; experiment: SRB cell proliferation assay, MCF10A; assay type: cell-based, human; details: 72 h
Procedure: as §1, §2

[2] = system: MDA-MB-231/Luc cells-implanted orthotopic mouse model; experiment: MDA-MB-231/Luc-implanted orthotopic mouse tumor model; assay type: in vivo; details: 30 mg/kg i.p., three times per week for 38 days
Procedure: All animal experiments were conducted following the guidelines approved by the Seoul National University Institutional Animal Care and Use Committee (IACUC; permission number: SNU-180430-4-1). Female nude mice (BALB/c-nu), 4 weeks old, were purchased from Central Laboratory Animal, Inc. (Seoul, Korea) and housed under pathogen-free conditions with a 12 h light-dark schedule. Luciferase expressing MDA-MB-231 cells were inoculated orthotopically into the fourth fat pad of mice (1 × 10^7 cells in 100 μL of 50:50 PBS/Matrigel) using a 29-gauge needle. Two weeks after implantation, mice were randomized into vehicle control and treatment groups of six animals per group and were administered with vehicle (EtOH/Cremophor/Normal saline = 5:5:90), 9l (10 or 30 mg/kg body weight), EPZ-5676 (30 mg/kg body weight), or paclitaxel (5 mg/kg body weight, Sigma-Aldrich) as a positive reference control. Compounds were administered intraperitoneally three times per week for 38 days. An additional week later, anesthetized mice were positioned in IVIS (PerkinElmer, Waltham, MA, USA) and were imaged 15 min after injection of 150 mg/kg D-luciferin (Gold Biotechnology, St. Louis, MO, USA) resuspended in DPBS (w/o calcium or magnesium). Mice were euthanized and primary tumors and lungs were excised, weighed, and frozen for further biochemical analysis. The length (L), width (W), and height (H) of the tumors were also measured using a digital slide caliper (Mitutoyo, Kawasaki, Japan) once a week, and tumor volumes (mm^3) were estimated by the formula LWH/2. Toxicity was evaluated based on body weight loss.
A portion of the frozen tumors excised from nude mice on the termination day of the experiment was homogenized using a hand-held homogenizer in complete lysis buffer (Active Motif, Carlsbad, CA, USA). Aliquots were stored at −80 °C, and the levels of protein expression in the tumor lysates were determined. The protein concentrations in the tumor lysates were measured using the Bradford assay.

[3] = Molecular stability in dichloromethane (TLC analysis); assay type: physicochemical; details: room temperature, 48 h
Procedure: Figure S1. Thin layer chromatography analysis
Se-S bond analog (Figure 2, compound 9) was dissolved in dichloromethane at room
temperature. After 48 h, thin layer chromatography (TLC) analysis of the compound
9 was performed. (P : Compound 9, C : Co-spot, S : Diphenyl disulfide, SPA :
Compound 5b, eluent: [Hexane:EtOAc = 1:1] ).
(1 picture or pasted object on this page, not shown here)

T1 sequence (Q8TEK3 whole entry): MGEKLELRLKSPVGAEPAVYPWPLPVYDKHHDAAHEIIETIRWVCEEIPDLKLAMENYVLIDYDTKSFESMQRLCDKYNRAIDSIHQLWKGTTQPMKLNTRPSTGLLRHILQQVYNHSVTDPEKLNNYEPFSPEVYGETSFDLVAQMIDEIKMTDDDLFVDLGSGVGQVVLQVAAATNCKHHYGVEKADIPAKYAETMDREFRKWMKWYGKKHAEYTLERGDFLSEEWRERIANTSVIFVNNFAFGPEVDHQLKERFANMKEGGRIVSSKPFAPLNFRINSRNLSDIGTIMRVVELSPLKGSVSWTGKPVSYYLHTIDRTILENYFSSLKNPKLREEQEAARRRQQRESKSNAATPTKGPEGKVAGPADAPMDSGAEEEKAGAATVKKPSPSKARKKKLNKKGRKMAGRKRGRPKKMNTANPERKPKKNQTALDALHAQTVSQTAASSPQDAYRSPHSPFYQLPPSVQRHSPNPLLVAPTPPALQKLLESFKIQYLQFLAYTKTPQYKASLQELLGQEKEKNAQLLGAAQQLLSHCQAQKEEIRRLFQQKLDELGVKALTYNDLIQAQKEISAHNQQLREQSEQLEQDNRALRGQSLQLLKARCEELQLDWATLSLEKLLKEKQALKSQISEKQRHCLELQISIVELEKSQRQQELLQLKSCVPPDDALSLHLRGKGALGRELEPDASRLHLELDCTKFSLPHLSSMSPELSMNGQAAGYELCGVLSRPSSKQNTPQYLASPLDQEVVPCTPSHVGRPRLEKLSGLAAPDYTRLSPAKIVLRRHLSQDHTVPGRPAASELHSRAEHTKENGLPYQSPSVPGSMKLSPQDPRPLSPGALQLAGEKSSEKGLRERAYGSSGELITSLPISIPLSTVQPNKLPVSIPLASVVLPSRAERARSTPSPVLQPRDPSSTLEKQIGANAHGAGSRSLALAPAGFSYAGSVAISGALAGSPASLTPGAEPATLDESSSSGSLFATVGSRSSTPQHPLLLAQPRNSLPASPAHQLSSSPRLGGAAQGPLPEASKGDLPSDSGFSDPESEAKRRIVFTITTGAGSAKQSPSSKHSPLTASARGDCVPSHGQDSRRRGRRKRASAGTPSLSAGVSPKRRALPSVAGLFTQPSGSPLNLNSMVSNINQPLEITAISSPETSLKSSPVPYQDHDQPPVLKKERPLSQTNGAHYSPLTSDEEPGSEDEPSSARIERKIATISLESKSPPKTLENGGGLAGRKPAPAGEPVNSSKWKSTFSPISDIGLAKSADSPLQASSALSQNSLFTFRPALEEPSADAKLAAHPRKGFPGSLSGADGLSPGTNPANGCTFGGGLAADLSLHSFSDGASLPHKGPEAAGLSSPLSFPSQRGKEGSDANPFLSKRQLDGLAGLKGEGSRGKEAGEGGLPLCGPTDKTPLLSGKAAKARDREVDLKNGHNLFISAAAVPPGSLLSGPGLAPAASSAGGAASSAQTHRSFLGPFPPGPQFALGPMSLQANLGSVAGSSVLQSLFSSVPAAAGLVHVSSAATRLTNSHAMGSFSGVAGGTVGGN

SMILES	IC50 (MDA-MB-231 TNBC cells; Homo sapiens, MDA-MB-231)	Therapeutic Index (MDA-MB-231 TNBC cells)	IC50 ([1]; Homo sapiens, MCF-10A)	further results
O=C(NCC[Se]Sc1ccccc1)/C(Cc1ccc(O)c(Br)c1)=N/O [9a, (E)-3-(3-Bromo-4-hydroxyphenyl)-2-(hydroxyimino)-N-(2-((phenylthio)selanyl)ethyl)propanamide]	210 nM	82.10	17200 nM	Inhibition of DOT1L enzyme activity (DOT1L): significant inhibitory effects
O=C(NCC[Se]Sc1ccccc1)/C(Cc1ccccc1)=N/O [9b, (E)-2-(Hydroxyimino)-3-phenyl-N-(2-((phenylthio)selanyl)ethyl)propanamide]	250 nM	86.08	21500 nM	Inhibition of DOT1L enzyme activity (DOT1L): significant inhibitory effects
O=C(NCC[Se]Sc1ccccc1)/C(Cc1ccc2ccccc2c1)=N/O [9c, (E)-2-(Hydroxyimino)-3-(naphthalen-2-yl)-N-(2-((phenylthio)selanyl)ethyl)propanamide]	460 nM	61.30	28200 nM	
O=C(NCC[Se]Sc1ccccc1)/C(Cc1ccc(F)cc1)=N/O [9d, (E)-3-(4-Fluorophenyl)-2-(hydroxyimino)-N-(2-((phenylthio)selanyl)ethyl)propanamide]	390 nM	66.77	26000 nM	
O=C(NCC[Se]Sc1ccccc1)/C(Cc1ccc(F)c(F)c1)=N/O [9e, (E)-3-(3,4-Difluorophenyl)-2-(hydroxyimino)-N-(2-((phenylthio)selanyl)ethyl)propanamide]	430 nM	54.23	23300 nM	
O=C(NCC[Se]Sc1ccccc1)/C(Cc1ccc(Cl)cc1)=N/O [9f, (E)-3-(4-Chlorophenyl)-2-(hydroxyimino)-N-(2-((phenylthio)selanyl)ethyl)propanamide]	470 nM	57.60	27100 nM	
O=C(NCC[Se]Sc1ccccc1)/C(Cc1ccc(Cl)c(Cl)c1)=N/O [9g, (E)-3-(3,4-Dichlorophenyl)-2-(hydroxyimino)-N-(2-((phenylthio)selanyl)ethyl)propanamide]	330 nM	68.67	22700 nM	
O=C(NCC[Se]Sc1ccccc1)/C(Cc1ccc(Br)cc1)=N/O [9h, (E)-3-(4-Bromophenyl)-2-(hydroxyimino)-N-(2-((phenylthio)selanyl)ethyl)propanamide]	400 nM	72.85	29100 nM	
CCOc1ccc(C/C(=N\O)C(=O)NCC[Se]Sc2ccccc2)cc1 [9i, (E)-3-(4-Ethoxyphenyl)-2-(hydroxyimino)-N-(2-((phenylthio)selanyl)ethyl)propanamide]	170 nM	123.65	21000 nM	
O=C(NCC[Se]Sc1ccccc1)/C(Cc1ccc(OCc2ccccc2)cc1)=N/O [9j, (E)-3-(4-(Benzyloxy)phenyl)-2-(hydroxyimino)-N-(2-((phenylthio)selanyl)ethyl)propanamide]	180 nM	108.22	19500 nM	
O=C(NCC[Se]Sc1ccccc1)/C(Cc1ccc([N+](=O)[O-])cc1)=N/O [9k, (E)-2-(Hydroxyimino)-3-(4-nitrophenyl)-N-(2-((phenylthio)selanyl)ethyl)propanamide]	190 nM	95.53	18200 nM	
O=C(NCC[Se]Sc1ccccc1)/C(Cc1ccc(O)c(Cl)c1)=N/O [9m, (E)-3-(3-Chloro-4-hydroxyphenyl)-2-(hydroxyimino)-N-(2-((phenylthio)selanyl)ethyl)propanamide]	250 nM	68.08	17000 nM	
O=C(NCC[Se]Sc1ccccc1)/C(Cc1ccc(O)c(F)c1)=N/O [9n, (E)-3-(3-Fluoro-4-hydroxyphenyl)-2-(hydroxyimino)-N-(2-((phenylthio)selanyl)ethyl)propanamide]	230 nM	80.48	18500 nM	
CC(C)N(C[C@H]1O[C@@H](n2cnc3c(N)ncnc32)[C@H](O)[C@@H]1O)[C@H]1C[C@@H](CCc2nc3cc(C(C)(C)C)ccc3[nH]2)C1 [EPZ-5676, reference compound]	> 50000 nM		> 50000 nM	inhibition of proliferation of TNBC cells (MDA-MB-231 TNBC cells; at 50 μM): not able to inhibit the proliferation; effect on tumor growth [2]: did not affect tumor growth
CC(=O)O[C@H]1C(=O)[C@@]2(C)[C@H]([C@H](OC(=O)c3ccccc3)[C@]3(O)C[C@H](OC(=O)[C@H](O)[C@@H](NC(=O)c4ccccc4)c4ccccc4)C(C)=C1C3(C)C)[C@]1(OC(C)=O)CO[C@@H]1C[C@@H]2O [Paclitaxel, reference compound]	10 nM	19.80	198 nM	
CC(C)(C)c1ccc(CC(=NO)C(=O)NCCSSc2ccccc2)cc1 [PsA-3091, reference compound]		68.99		IC50 (MDA-MB-231 TNBC cells): 1980 nM; IC50 [1]: 137000 nM
O=C(NCCSSCCNC(=O)/C(Cc1ccc(O)c(Br)c1)=N/O)/C(Cc1ccc(O)c(Br)c1)=N/O [Psammaplin A (PsA), Psammaplin A]	2820 nM	11.60	32700 nM	Inhibition of DOT1L enzyme activity (DOT1L): negligible DOT1L inhibition
O=C(NCC[Se]Sc1ccccc1)/C(Cc1ccccc1)=N/O [compound 9]				molecular stability [3]: stable

Source: article PMC7824081, “Inhibition of DOT1L by Half-Selenopsammaplin A Analogs Suppresses Tumor Growth and EMT-Mediated Metastasis in Triple-Negative Breast Cancer” (Pharmaceuticals, 2020)
